From article PMC11361638, “Chemical genetic screens reveal defective lysosomal trafficking as synthetic lethal with NF1 loss” (Journal of Cell Science, 2024)

Molecular target: T1, BORCS7 (Homo sapiens, UniProt Q96B45)
T1 construct: endogenous full-length protein in U87-MG cells, subunit of the eight-protein BORC
T1 sequence (Q96B45 1-106): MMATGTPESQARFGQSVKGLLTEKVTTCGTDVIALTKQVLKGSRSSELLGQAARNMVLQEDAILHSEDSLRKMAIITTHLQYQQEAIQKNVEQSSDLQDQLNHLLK
Assay: click-chemistry pulldown on alkyne resin, LC-MS/MS
Type: cell-based
Conditions: U87-MG cells treated with 2 µM for 2 h, lysed in 8 M urea; labelled compound; binding subunit within BORC not resolved

Cn1cnnc1S/C=C/C(=O)c1ccc(CCN=[N+]=[N-])cc1 [az-Y102]
iBAQ area ratio: Click-chemistry enriched pulldown results for p21 and BORCS7.
